Test results reported in the NIST ThermoML archive (doi:10.1016/j.fluid.2015.12.007).
Numbers after ± are expanded uncertainties.

Test: xn = mol fraction of the nth substance listed
Settings: 101 kPa, Liquid; for speed of sound: Sing-around technique in a fixed-path interferometer; for mass density: Vibrating tube method

CC(O)CO (stereo not given) [1,2-propanediol] + CCCC[n+]1ccn(C)c1.O=S(=O)([N-]S(=O)(=O)C(F)(F)F)C(F)(F)F
Settings	mass density [kg/m3]	speed of sound [m/s]
293.15 K, x2 = 0.0606	1117.8 ± 0.17	1446.5 ± 1.3
293.15 K, x2 = 0.1118	1168.99 ± 0.2	1406.4 ± 1.3
293.15 K, x2 = 0.2003	1234.54 ± 0.23	1358.1 ± 1.3
293.15 K, x2 = 0.3056	1289.66 ± 0.25	1319.6 ± 1.2
293.15 K, x2 = 0.408	1328.41 ± 0.26	1294.8 ± 1.2
293.15 K, x2 = 0.4987	1355.11 ± 0.26	1279.5 ± 1.2
293.15 K, x2 = 0.602	1379.69 ± 0.24	1265.9 ± 1.2
293.15 K, x2 = 0.7047	1399.49 ± 0.23	1256.2 ± 1.2
293.15 K, x2 = 0.7945	1413.97 ± 0.23	1249.2 ± 1.2
293.15 K, x2 = 0.8971	1428 ± 0.23	1243.5 ± 1.2
298.15 K, x2 = 0.0606	1113.84 ± 0.17	1435.8 ± 1.3
298.15 K, x2 = 0.1118	1164.21 ± 0.2	1395.8 ± 1.3
298.15 K, x2 = 0.2003	1230.02 ± 0.23	1345.7 ± 1.3
298.15 K, x2 = 0.3056	1284.95 ± 0.25	1307.6 ± 1.2
298.15 K, x2 = 0.408	1323.62 ± 0.26	1283.1 ± 1.2
298.15 K, x2 = 0.4987	1350.28 ± 0.26	1268 ± 1.2
298.15 K, x2 = 0.602	1374.74 ± 0.24	1254.5 ± 1.2
298.15 K, x2 = 0.7047	1394.49 ± 0.23	1244.9 ± 1.2
298.15 K, x2 = 0.7945	1409 ± 0.23	1238 ± 1.2
298.15 K, x2 = 0.8971	1423.19 ± 0.22	1232.2 ± 1.2
303.15 K, x2 = 0.0606	1109.82 ± 0.17	1422.8 ± 1.3
303.15 K, x2 = 0.1118	1161.05 ± 0.19	1382.1 ± 1.3
303.15 K, x2 = 0.2003	1225.5 ± 0.23	1333.5 ± 1.3
303.15 K, x2 = 0.3056	1280.27 ± 0.25	1295.7 ± 1.2
303.15 K, x2 = 0.408	1318.85 ± 0.25	1271.4 ± 1.2
303.15 K, x2 = 0.4987	1345.27 ± 0.25	1256.6 ± 1.2
303.15 K, x2 = 0.602	1369.61 ± 0.23	1243.2 ± 1.2
303.15 K, x2 = 0.7047	1389.48 ± 0.23	1233.8 ± 1.2
303.15 K, x2 = 0.7945	1404.07 ± 0.22	1226.9 ± 1.2
303.15 K, x2 = 0.8971	1418.39 ± 0.22	1221.1 ± 1.2
308.15 K, x2 = 0.0606	1105.77 ± 0.17	1408.7 ± 1.3
308.15 K, x2 = 0.1118	1156.91 ± 0.19	1367.8 ± 1.3
308.15 K, x2 = 0.2003	1220.98 ± 0.22	1321.3 ± 1.2
308.15 K, x2 = 0.3056	1275.59 ± 0.24	1283.8 ± 1.2
308.15 K, x2 = 0.408	1314.09 ± 0.25	1259.9 ± 1.2
308.15 K, x2 = 0.4987	1340.46 ± 0.25	1245.3 ± 1.2
308.15 K, x2 = 0.602	1364.78 ± 0.23	1232 ± 1.2
308.15 K, x2 = 0.7047	1384.7 ± 0.23	1222.7 ± 1.2
308.15 K, x2 = 0.7945	1399.37 ± 0.22	1215.9 ± 1.2
308.15 K, x2 = 0.8971	1413.61 ± 0.22	1210.2 ± 1.2
313.15 K, x2 = 0.0606	1101.68 ± 0.17	1396.5 ± 1.3
313.15 K, x2 = 0.1118	1152.58 ± 0.19	1356.3 ± 1.3
313.15 K, x2 = 0.2003	1216.47 ± 0.22	1309.3 ± 1.2
313.15 K, x2 = 0.3056	1270.92 ± 0.24	1272.2 ± 1.2
313.15 K, x2 = 0.408	1309.33 ± 0.25	1248.6 ± 1.2
313.15 K, x2 = 0.4987	1335.67 ± 0.25	1234.1 ± 1.2
313.15 K, x2 = 0.602	1359.98 ± 0.23	1220.9 ± 1.2
313.15 K, x2 = 0.7047	1379.79 ± 0.22	1211.8 ± 1.2
313.15 K, x2 = 0.7945	1394.5 ± 0.22	1205 ± 1.2
313.15 K, x2 = 0.8971	1408.84 ± 0.22	1199.3 ± 1.2
318.15 K, x2 = 0.0606	1097.57 ± 0.16	1383.2 ± 1.3
318.15 K, x2 = 0.1118	1147.96 ± 0.19	1343.7 ± 1.3
318.15 K, x2 = 0.2003	1211.95 ± 0.23	1297.3 ± 1.2
318.15 K, x2 = 0.3056	1266.24 ± 0.24	1260.6 ± 1.2
318.15 K, x2 = 0.408	1304.59 ± 0.25	1237.3 ± 1.2
318.15 K, x2 = 0.4987	1330.88 ± 0.25	1223.1 ± 1.2
318.15 K, x2 = 0.602	1355.18 ± 0.23	1210.1 ± 1.2
318.15 K, x2 = 0.7047	1374.95 ± 0.22	1201 ± 1.2
318.15 K, x2 = 0.7945	1389.43 ± 0.22	1194.3 ± 1.2
318.15 K, x2 = 0.8971	1404.09 ± 0.22	1188.6 ± 1.2
